Test system: 293 cells with optical probe plasmids expressed in the cytosol
Test: dynamic monitoring of phosphoenolpyruvate in the cytosol with the optical probe
Type: cell-based
Details: 5 mM Oxalate added, detection continued for 30 minutes, HBSS solution
Experimental: • 1. pCDNA3.1+-based phosphoenolpyruvate optical probe plasmids were transfected into HEK293 by using the transfection reagent Lipofectamine2000 (Invitrogen) and incubated in a cell incubator at 37 °C with 5% CO2. After the exogenous gene was fully expressed for 24~36 hours, the fluorescence detection was performed. • 2. After induction of expression, adherent HEK293 cells were washed three times with PBS and placed in HBSS solution for fluorescence microscopy and microplate reader assays, respectively.
In this example, different localization signal peptides were used to fuse to the optical probe 254/255-TtPFK- I253K/Q254L/R255L/G256F-cpYFP-Y1S which was localized in different organelles.
Thirty-six hours after transfection of 293 cells with optical probe plasmids expressed in the cytosol, the cells were rinsed with PBS, placed in an HBSS solution, and the change in the ratio of the fluorescence intensity at an excitation of 420 nm and an emission of 528 nm to that at an excitation of 485 nm and an emission of 528 nm was detected in a 30-minute period.

`O=C(O)C(=O)O` [Oxalate] was tested, and the 485/420 ratio was “up to 3.5 times the initial value”.

Reference: patent publication EP4624497A1, “PHOSPHOEN[…] PROBE, PREPARATION METHOD THEREFOR AND APPLICATION THEREOF” (priority 2022, dated 2024)
